The text below walks through data of US20240287042A1, “NOVEL COMPOUND HAVING INHIBITORY ACTIVITY AGAINST PENDRIN, AND PHARMACEUTICAL USES THEREOF” (UIF (University Industry Foundation), Yonsei University, priority 2021, published 2024).

A value given as a limit tells only on which side of the number the result lay.

The experiment deals with T1, human wild-type (WT)-pendrin (Homo sapiens, UniProt O43511).
T1 construct: expressed in transfected cells
T1 sequence (O43511 1-780): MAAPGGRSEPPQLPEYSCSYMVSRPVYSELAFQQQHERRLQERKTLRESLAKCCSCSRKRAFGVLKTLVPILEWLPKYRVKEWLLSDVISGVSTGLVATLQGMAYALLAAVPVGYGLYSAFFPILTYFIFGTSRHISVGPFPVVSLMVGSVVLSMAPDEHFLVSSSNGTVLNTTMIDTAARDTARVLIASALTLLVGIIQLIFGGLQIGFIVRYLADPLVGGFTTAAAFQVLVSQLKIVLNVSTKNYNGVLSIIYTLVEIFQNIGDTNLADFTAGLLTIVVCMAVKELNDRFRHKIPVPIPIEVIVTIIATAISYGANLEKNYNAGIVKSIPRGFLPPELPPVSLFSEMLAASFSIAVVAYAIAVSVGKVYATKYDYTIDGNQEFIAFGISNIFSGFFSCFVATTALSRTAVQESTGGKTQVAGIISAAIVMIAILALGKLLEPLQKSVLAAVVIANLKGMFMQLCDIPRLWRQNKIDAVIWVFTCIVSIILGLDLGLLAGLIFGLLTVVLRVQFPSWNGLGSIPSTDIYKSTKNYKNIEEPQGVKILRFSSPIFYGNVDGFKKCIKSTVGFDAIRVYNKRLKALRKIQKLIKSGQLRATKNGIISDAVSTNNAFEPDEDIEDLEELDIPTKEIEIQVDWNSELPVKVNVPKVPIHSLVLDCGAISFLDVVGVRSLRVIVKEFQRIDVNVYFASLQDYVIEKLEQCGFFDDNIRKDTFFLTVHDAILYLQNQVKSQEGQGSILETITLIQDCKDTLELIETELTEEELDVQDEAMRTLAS
The experiment can be described thus: Pendrin Cl−/I− exchange inhibitory activity, YFP fluorescence in CHO-K1 cells. It is filed as cell-based. To be noted: CHO-K1; for inhibition at 1 µM: compound concentration 1 μM; for inhibition at 3 µM: compound concentration 3 μM; for inhibition at 10 µM: compound concentration 10 μM; for inhibition at 30 µM: compound concentration 30 μM; for inhibition at 100 µM: compound concentration 100 μM. As to the method:
Chinese hamster ovary (CHO)-K1 cells were cultured in DMEM medium containing 10% fetal bovine serum (FBS), 100 units/ml of penicillin and 100 μg/ml streptomycin. CHO-K1 cells were stably transfected with pcDNA3.1 encoding the halide sensor YFP-H148Q/I152L/F46L and human wild-type (WT)-pendrin.
(§1) CHO-K1 cells expressing human WT pendrin and YFP-F46L/H148Q/I152L were plated in 96-well microplates at a density of 2×10^4 cells per well, and cultured for 48 hours. Each well of the cell cultured 96-well plate was washed 2 times with 200 μL of PBS, and filled with 50 μL of HEPES buffered solution (140 mM NaCl, 5 mM KCl, 1 mM MgCl2, 1 mM CaCl2), 10 mM glucose and 10 mM HEPES (pH 7.4)). Test compounds (1 μL) were added to a final concentration of 1, 3, 10, 30 and 100 μM. After culturing at 37° C. for 10 minutes, the 96-well plate was located on the FLUOstar Omega Microplate Reader (BMG Labtech, Ortenberg, Germany) for a fluorescence assay. Fluorescence was recorded continuously (400 ms per point) for 1 second (baseline), whereby each well was assayed individually for pendrin-mediated I-influx. Then 50 μL of Na-substituted HEPES buffered solution (replacing NaCl with NaI) was added using a liquid injector at 1 second, and YFP fluorescence was recorded for 5 seconds. The initial iodide influx rate was determined from the initial slope of fluorescence by nonlinear regression, after the injection of iodide.
as §1, with “Chinese hamster ovary (CHO)-K1 cells were cultured in DMEM medium containing 10% fetal bovine serum (FBS), 100 units/ml of penicillin and 100 μg/ml streptomycin. CHO-K1 cells were stably transfected with pcDNA3.1 encoding the halide sensor YFP-H148Q/I152L/F46L and human wild-type (WT)-pendrin. 3-2: Assay of Cl^−/I^− exchange activity CHO-K1” for “CHO-K1”, “50” for “1, 3, 10, 30 and 100”, “Then,” for “Then”, “NaI-substituted” for “Na-substituted”

As to `O=C(O)c1[nH]c2ccc(Cl)cc2c1CC(=O)N1CCN(c2ccccc2Cl)CC1` [YPI-A4803, 5-Chloro-3-(2-(4-(2-chlorophenyl)piperazin-1-yl)-2-oxoethyl)-1H-indole-2-carboxylic acid], the inhibition at 1 µM was less than 20%, the inhibition at 3 µM was less than 20%, at 10 µM the inhibition was 39.4% and 30 µM produced 73.9% inhibition. The compound further displayed an inhibition at 100 µM of 95.7%.
The compound `Cc1ccc(N2CCN(C(=O)Cc3c(C(=O)O)[nH]c4ccc(Cl)cc34)CC2)cc1` [YPI-A4849, 5-Chloro-3-(2-oxo-2-(4-(p-tolyl)piperazin-1-yl)ethyl)-1H-indole-2-carboxylic acid] had an inhibition at 1 µM of less than 20%, an inhibition at 3 µM of less than 20%, an inhibition at 10 µM of 36.8% and an inhibition at 30 µM of 90.9%. Also, testing at 100 µM gave an inhibition of 92.3%.
Consider `CC1(C)CN(c2ccc(Cl)cc2)CCN1C(=O)Cc1c(C(=O)O)[nH]c2ccc(Cl)cc12` [YPI-A4884, 5-Chloro-3-(2-(4-(4-chlorophenyl)-2,2-dimethylpiperazin-1-yl)-2-oxoethyl)-1H-indole-2-carboxylic acid], for which the inhibition at 1 µM was less than 20%, the inhibition at 3 µM was less than 20%, the inhibition at 10 µM is less than 20% and the inhibition at 30 µM is less than 20%.
For `Cc1cc(C)c2[nH]c(C(=O)O)c(CC(=O)N3CCN(c4c(C)cccc4C)CC3)c2c1` [YPI-A4947, 3-(2-(4-(2,6-dimethylphenyl)piperazin-1-yl)-2-oxoethyl)-5,7-dimethyl-1H-indole-2-carboxylic acid], the inhibition at 1 µM was less than 20%, the inhibition at 3 µM was less than 20%, the inhibition at 10 µM came out at 40.8% and testing at 30 µM gave an inhibition of 41.3%. The compound also showed an inhibition at 100 µM of 41.9%.
`CC(=O)c1ccc(N2CCN(C(=O)Cc3c(C(=O)O)[nH]c4ccc(Cl)cc34)CC2)cc1` [YPI-A4920, 3-(2-(4-(4-Acetylphenyl)piperazin-1-yl)-2-oxoethyl)-5-chloro-1H-indole-2-carboxylic acid] showed an inhibition at 1 µM of less than 20%, an inhibition at 3 µM of less than 20%, an inhibition at 10 µM of less than 20% and an inhibition at 30 µM of less than 20%. Further, the inhibition at 100 µM was less than 20%.
As to `COc1ccc(Cl)c(N2CCN(C(=O)Cc3c(C(=O)O)[nH]c4ccc(Cl)cc34)CC2)c1` [YPI-A4886, 5-Chloro-3-(2-(4-(2-chloro-5-methoxyphenyl)piperazin-1-yl)-2-oxoethyl)-1H-indole-2-carboxylic acid], the inhibition at 1 µM is less than 20%, the inhibition at 3 µM is less than 20%, the inhibition at 10 µM was 33.7% and the inhibition at 30 µM was found to be 66.2%. The compound further registered an inhibition at 100 µM of 79.9%.
`COc1ccc(N2CCN(C(=O)Cc3c(C(=O)O)[nH]c4ccc(Cl)cc34)CC2)cc1` [YPI-A4878, 5-Chloro-3-(2-(4-(4-methoxyphenyl)piperazin-1-yl)-2-oxoethyl)-1H-indole-2-carboxylic acid] yielded an inhibition at 1 µM of less than 20%, an inhibition at 3 µM of less than 20%, an inhibition at 10 µM of less than 20% and an inhibition at 30 µM of less than 20%. The inhibition at 100 µM was 79.4%.
For `CC(C)(C)c1ccc(N2CCN(C(=O)Cc3c(C(=O)O)[nH]c4ccc(Cl)cc34)CC2)cc1` [YPI-A4943, 3-(2-(4-(4-(Tert-butyl)phenyl)piperazin-1-yl)-2-oxoethyl)-5-chloro-1H-indole-2-carboxylic acid], the inhibition at 1 µM was less than 20%, the inhibition at 3 µM amounted to 34.1%, the inhibition at 10 µM came to 70.8% and the inhibition at 30 µM was 81.9%. The compound further returned an inhibition at 100 µM of 91.5%.
`O=C(O)c1[nH]c2ccc(Cl)cc2c1CC(=O)N1CCN(c2ccc(Cl)cc2Cl)CC1` [YPI-A4887, 5-Chloro-3-(2-(4-(2,4-dichlorophenyl)piperazin-1-yl)-2-oxoethyl)-1H-indole-2-carboxylic acid]: the inhibition at 1 µM is less than 20%, the inhibition at 3 µM amounted to 50.8%, at 10 µM the inhibition was 89.3% and the inhibition at 30 µM was 89.5%. The compound also had an inhibition at 100 µM of 89.9%.
Regarding `CC(C)(C)c1ccc(N2CCN(C(=O)Cc3c(C(=O)O)[nH]c4ccc(F)cc34)CC2)cc1` [YPI-A4965, 3-(2-(4-(4-(Tert-butyl)phenyl)piperazin-1-yl)-2-oxoethyl)-5-fluoro-1H-indole-2-carboxylic acid], the inhibition at 1 µM is less than 20%, the inhibition at 3 µM was less than 20%, the inhibition at 10 µM was less than 20% and at 30 µM the inhibition was 62.7%.
`Cc1c(Cl)cccc1N1CCN(C(=O)Cc2c(C(=O)O)[nH]c3ccc(Cl)cc23)CC1` [YPI-A4918, 5-Chloro-3-(2-(4-(3-chloro-2-methylphenyl)piperazin-1-yl)-2-oxoethyl)-1H-indole-2-carboxylic acid] had an inhibition at 1 µM of less than 20%, an inhibition at 3 µM of 34.7%, an inhibition at 10 µM of 87.5% and an inhibition at 30 µM of 94.8%. The compound further registered an inhibition at 100 µM of 95.6%.
Take `C[C@@H]1CN(c2ccccc2)CCN1C(=O)Cc1c(C(=O)O)[nH]c2ccc(Cl)cc12` [YPI-A4914, (R)-5-chloro-3-(2-(2-methyl-4-phenylpiperazin-1-yl)-2-oxoethyl)-1H-indole-2-carboxylic acid]: the inhibition at 1 µM was less than 20%, the inhibition at 3 µM is less than 20%, the inhibition at 10 µM was less than 20% and the inhibition at 30 µM is less than 20%. Besides, the inhibition at 100 µM was determined as 68.2%.
`Cc1cccc(N2CCN(C(=O)Cc3c(C(=O)O)[nH]c4ccc(Cl)cc34)CC2)c1C` [YPI-A4799, 5-Chloro-3-(2-(4-(2,3-dimethylphenyl)piperazin-1-yl)-2-oxoethyl)-1H-indole-2-carboxylic acid] came in with an inhibition at 1 µM of 27.9%, an inhibition at 3 µM of 65.3%, an inhibition at 10 µM of 94.2% and an inhibition at 30 µM of 95.5%. Further, the inhibition at 100 µM amounted to 97.1%.
In turn, `CCOc1ccccc1N1CCN(C(=O)Cc2c(C(=O)O)[nH]c3ccc(Cl)cc23)CC1` [YPI-A4882, 5-Chloro-3-(2-(4-(2-ethoxyphenyl)piperazin-1-yl)-2-oxoethyl)-1H-indole-2-carboxylic acid] yielded an inhibition at 1 µM of less than 20%, an inhibition at 3 µM of less than 20%, an inhibition at 10 µM of less than 20% and an inhibition at 30 µM of less than 20%. Besides, the inhibition at 100 µM stood at 45.3%.
`Cc1cccc(C)c1N1CCN(C(=O)Cc2c(C(=O)O)[nH]c3ccc(Cl)cc23)CC1` [YPI-A4783, 5-Chloro-3-(2-(4-(2,6-dimethylphenyl)piperazin-1-yl)-2-oxoethyl)-1H-indole-2-carboxylic acid] returned an inhibition at 1 µM of 39.9%, an inhibition at 3 µM of 74.5%, an inhibition at 10 µM of 100% and an inhibition at 30 µM of 100%. The compound also registered an inhibition at 100 µM of 100%.

The term inhibition denotes the relative decrease from the control value, in per cent. The low end stands for a weak effect, the high end for a strong effect.
